Values after ≈ are worked out from the molar mass of the structure shown.
Key:
Cryptococcus neoformans = assay: Antifungal activity against Cryptococcus neoformans by broth microdilution test; format: functional, organism-based
Fusarium oxysporum = assay: Antifungal activity against Fusarium oxysporum by broth microdilution test; format: functional, organism-based
Candida albicans = assay: Antifungal activity against Candida albicans by broth microdilution test; format: functional, organism-based
Benjaminiella poitrasii [1] = assay: Inhibition of chitin synthase activity in Benjaminiella poitrasii at 4 ug/mL
Benjaminiella poitrasii [2] = assay: Antifungal activity against Benjaminiella poitrasii assessed as inhibition of germ tube formation at 4 ug/mL after 6 hrs; format: functional
Benjaminiella poitrasii [3] = assay: Antifungal activity against Benjaminiella poitrasii at 4 ug/mL by standard broth microdilution technique; format: functional

## C[C@@H]1[C@H](O)[C@@H](C)/C=C/C=C/C=C/C=C/C=C/C=C/C=C/[C@H](O[C@@H]2O[C@H](C)[C@@H](O)[C@H](N)[C@@H]2O)C[C@@H]2O[C@](O)(C[C@@H](O)C[C@@H](O)[C@H](O)CC[C@@H](O)C[C@@H](O)CC(=O)O[C@H]1C)C[C@H](O)[C@H]2C(=O)O [AMPHOTERICIN B]
Cryptococcus neoformans
  MIC90: 16 mg/L (≈ 17.3 µM)
Fusarium oxysporum
  MIC90: 16 mg/L (≈ 17.3 µM)
Candida albicans
  MIC90: 2 mg/L (≈ 2.16 µM)

## CC1(C)O[C@@H]2[C@H](O1)[C@@H](Cn1cc(COC(=O)Cc3ccc(O)cc3)nn1)O[C@H]2n1ccc(=O)[nH]c1=O
Cryptococcus neoformans
  IC50: 128 mg/L (≈ 256 µM)
  MIC90: > 128 mg/L
Fusarium oxysporum
  IC50: 35 mg/L (≈ 70.1 µM)
  MIC90: 57 mg/L (≈ 114 µM)
Benjaminiella poitrasii [1]
  inhibition: 73.4%
Benjaminiella poitrasii [2]
  inhibition at 4 µg/mL: 61.5%
Benjaminiella poitrasii [3]
  inhibition at 4 µg/mL: 28.2%
Candida albicans
  IC50: > 128 mg/L
  MIC90: > 128 mg/L

## CC1(C)O[C@@H]2[C@H](O1)[C@@H](Cn1cc(COc3cccc4ccccc34)nn1)O[C@H]2n1ccc(=O)[nH]c1=O
Cryptococcus neoformans
  IC50: 32 mg/L (≈ 65.1 µM)
  MIC90: 64 mg/L (≈ 130 µM)
Fusarium oxysporum
  IC50: 32 mg/L (≈ 65.1 µM)
  MIC90: 64 mg/L (≈ 130 µM)
Benjaminiella poitrasii [1]
  inhibition: 76.9%
Benjaminiella poitrasii [2]
  inhibition at 4 µg/mL: 72.7%
Benjaminiella poitrasii [3]
  inhibition at 4 µg/mL: 32.4%
Candida albicans
  IC50: 34 mg/L (≈ 69.2 µM)
  MIC90: > 128 mg/L

## CC1(C)O[C@@H]2[C@H](O1)[C@@H](Cn1cc(COC(=O)COc3ccccc3)nn1)O[C@H]2n1ccc(=O)[nH]c1=O
Cryptococcus neoformans
  IC50: 128 mg/L (≈ 256 µM)
  MIC90: > 128 mg/L
Fusarium oxysporum
  IC50: 16 mg/L (≈ 32 µM)
  MIC90: 33 mg/L (≈ 66.1 µM)
Benjaminiella poitrasii [1]
  inhibition: 74%
Benjaminiella poitrasii [2]
  inhibition at 4 µg/mL: 52.5%
Benjaminiella poitrasii [3]
  inhibition at 4 µg/mL: 56.2%
Candida albicans
  IC50: 64 mg/L (≈ 128 µM)
  MIC90: > 128 mg/L

## CC1(C)O[C@@H]2[C@H](O1)[C@@H](Cn1cc(COC(=O)CCl)nn1)O[C@H]2n1ccc(=O)[nH]c1=O
Cryptococcus neoformans
  IC50: 125 mg/L (≈ 283 µM)
  MIC90: > 128 mg/L
Fusarium oxysporum
  IC50: 8 mg/L (≈ 18.1 µM)
  MIC90: 16 mg/L (≈ 36.2 µM)
Benjaminiella poitrasii [1]
  inhibition: 75.7%
Benjaminiella poitrasii [2]
  inhibition at 4 µg/mL: 60%
Benjaminiella poitrasii [3]
  inhibition at 4 µg/mL: 30.2%
Candida albicans
  IC50: 32 mg/L (≈ 72.4 µM)
  MIC90: 66 mg/L (≈ 149 µM)

## CC1(C)O[C@@H]2[C@H](O1)[C@@H](Cn1cc(COc3ccc(Cl)cc3)nn1)O[C@H]2n1ccc(=O)[nH]c1=O
Cryptococcus neoformans
  IC50: 30 mg/L (≈ 63 µM)
  MIC90: 57 mg/L (≈ 120 µM)
Fusarium oxysporum
  IC50: 16 mg/L (≈ 33.6 µM)
  MIC90: 32 mg/L (≈ 67.2 µM)
Benjaminiella poitrasii [1]
  inhibition: 95.1%
Benjaminiella poitrasii [2]
  inhibition at 4 µg/mL: 58.1%
Benjaminiella poitrasii [3]
  inhibition at 4 µg/mL: 34.6%
Candida albicans
  IC50: 18 mg/L (≈ 37.8 µM)
  MIC90: 32 mg/L (≈ 67.2 µM)

## C[C@@H]([C@H](N)C(=O)N[C@H](C(=O)O)[C@H]1O[C@@H](n2ccc(=O)[nH]c2=O)[C@H](O)[C@@H]1O)[C@H](O)c1ccc(O)cn1 [NIKKOMYCIN]
Cryptococcus neoformans
  IC50: 16 mg/L (≈ 32.3 µM)
  MIC90: 30 mg/L (≈ 60.6 µM)
Fusarium oxysporum
  IC50: 6 mg/L (≈ 12.1 µM)
  MIC90: 8 mg/L (≈ 16.1 µM)
Benjaminiella poitrasii [1]
  inhibition: 96.6%
Benjaminiella poitrasii [2]
  inhibition at 4 µg/mL: > 95%
Benjaminiella poitrasii [3]
  inhibition at 4 µg/mL: 45.5%
Candida albicans
  IC50: 32 mg/L (≈ 64.6 µM)
  MIC90: 64 mg/L (≈ 129 µM)

## CC1(C)O[C@@H]2[C@H](O1)[C@@H](Cn1cc(COc3ccccc3)nn1)O[C@H]2n1ccc(=O)[nH]c1=O
Cryptococcus neoformans
  IC50: 4 mg/L (≈ 9.06 µM)
  MIC90: 8 mg/L (≈ 18.1 µM)
Fusarium oxysporum
  IC50: 128 mg/L (≈ 290 µM)
  MIC90: > 128 mg/L
Benjaminiella poitrasii [1]
  inhibition: 77.2%
Benjaminiella poitrasii [2]
  inhibition at 4 µg/mL: 45.1%
Benjaminiella poitrasii [3]
  inhibition at 4 µg/mL: 21.5%
Candida albicans
  IC50: 68 mg/L (≈ 154 µM)
  MIC90: > 128 mg/L

## CC1(C)O[C@@H]2[C@H](O1)[C@@H](Cn1cc(COC(=O)Cc3ccc(Cl)cc3Cl)nn1)O[C@H]2n1ccc(=O)[nH]c1=O
Cryptococcus neoformans
  IC50: 32 mg/L (≈ 57.9 µM)
  MIC90: 64 mg/L (≈ 116 µM)
Fusarium oxysporum
  IC50: > 128 mg/L
  MIC90: > 128 mg/L
Benjaminiella poitrasii [1]
  inhibition: 67%
Benjaminiella poitrasii [2]
  inhibition at 4 µg/mL: 57.1%
Benjaminiella poitrasii [3]
  inhibition at 4 µg/mL: 38.6%
Candida albicans
  IC50: 32 mg/L (≈ 57.9 µM)
  MIC90: > 128 mg/L

## CC1(C)O[C@@H]2[C@H](O1)[C@@H](Cn1cc(COc3ccc(F)cc3)nn1)O[C@H]2n1ccc(=O)[nH]c1=O
Cryptococcus neoformans
  IC50: 64 mg/L (≈ 139 µM)
  MIC90: 128 mg/L (≈ 279 µM)
Fusarium oxysporum
  IC50: 128 mg/L (≈ 279 µM)
  MIC90: > 128 mg/L
Benjaminiella poitrasii [1]
  inhibition: 84.1%
Benjaminiella poitrasii [2]
  inhibition at 4 µg/mL: 64.7%
Benjaminiella poitrasii [3]
  inhibition at 4 µg/mL: 9.43%
Candida albicans
  IC50: 9 mg/L (≈ 19.6 µM)
  MIC90: > 128 mg/L

## OC(Cn1cncn1)(Cn1cncn1)c1ccc(F)cc1F [FLUCONAZOLE]
Cryptococcus neoformans
  MIC90: 32 mg/L (≈ 104 µM)
Fusarium oxysporum
  MIC90: 8 mg/L (≈ 26.1 µM)
Candida albicans
  IC50: 14 mg/L (≈ 45.7 µM)
  MIC90: 32 mg/L (≈ 104 µM)

## Cc1ccccc1CC(=O)OCc1cn(C[C@H]2O[C@@H](n3ccc(=O)[nH]c3=O)[C@@H]3OC(C)(C)O[C@@H]32)nn1
Cryptococcus neoformans
  IC50: 32 mg/L (≈ 64.3 µM)
  MIC90: 64 mg/L (≈ 129 µM)
Fusarium oxysporum
  IC50: 64 mg/L (≈ 129 µM)
  MIC90: > 128 mg/L
Benjaminiella poitrasii [1]
  inhibition: 36.4%
Benjaminiella poitrasii [2]
  inhibition at 4 µg/mL: 67.2%
Benjaminiella poitrasii [3]
  inhibition at 4 µg/mL: 27.3%
Candida albicans
  IC50: 18 mg/L (≈ 36.2 µM)
  MIC90: 32 mg/L (≈ 64.3 µM)

## Cc1cccc(OCc2cn(C[C@H]3O[C@@H](n4ccc(=O)[nH]c4=O)[C@@H]4OC(C)(C)O[C@@H]43)nn2)c1
Cryptococcus neoformans
  IC50: 8 mg/L (≈ 17.6 µM)
  MIC90: 64 mg/L (≈ 141 µM)
Fusarium oxysporum
  IC50: 32 mg/L (≈ 70.3 µM)
  MIC90: 64 mg/L (≈ 141 µM)
Benjaminiella poitrasii [1]
  inhibition: 82.1%
Benjaminiella poitrasii [2]
  inhibition at 4 µg/mL: 69.2%
Benjaminiella poitrasii [3]
  inhibition at 4 µg/mL: 34.4%
Candida albicans
  IC50: 34 mg/L (≈ 74.6 µM)
  MIC90: 128 mg/L (≈ 281 µM)

## CC1(C)O[C@@H]2[C@H](O1)[C@@H](Cn1cc(COc3ccc([N+](=O)[O-])cc3)nn1)O[C@H]2n1ccc(=O)[nH]c1=O
Cryptococcus neoformans
  IC50: 14 mg/L (≈ 28.8 µM)
  MIC90: 32 mg/L (≈ 65.8 µM)
Fusarium oxysporum
  IC50: 32 mg/L (≈ 65.8 µM)
  MIC90: 64 mg/L (≈ 132 µM)
Benjaminiella poitrasii [1]
  inhibition: 77.8%
Benjaminiella poitrasii [2]
  inhibition at 4 µg/mL: 78.2%
Benjaminiella poitrasii [3]
  inhibition at 4 µg/mL: 17.4%
Candida albicans
  IC50: > 128 mg/L
  MIC90: > 128 mg/L

## COc1ccc(OCc2cn(C[C@H]3O[C@@H](n4ccc(=O)[nH]c4=O)[C@@H]4OC(C)(C)O[C@@H]43)nn2)cc1
Cryptococcus neoformans
  IC50: 35 mg/L (≈ 74.2 µM)
  MIC90: 49 mg/L (≈ 104 µM)
Fusarium oxysporum
  IC50: 70 mg/L (≈ 148 µM)
  MIC90: 124 mg/L (≈ 263 µM)
Benjaminiella poitrasii [1]
  inhibition: 68.5%
Benjaminiella poitrasii [2]
  inhibition at 4 µg/mL: 71.4%
Benjaminiella poitrasii [3]
  inhibition at 4 µg/mL: 29.3%
Candida albicans
  IC50: 16 mg/L (≈ 33.9 µM)
  MIC90: 24 mg/L (≈ 50.9 µM)

## CC1(C)O[C@@H]2[C@H](O1)[C@@H](Cn1cc(COC(=O)Cc3ccccc3)nn1)O[C@H]2n1ccc(=O)[nH]c1=O
Cryptococcus neoformans
  IC50: 18 mg/L (≈ 37.2 µM)
  MIC90: 31 mg/L (≈ 64.1 µM)
Fusarium oxysporum
  IC50: 16 mg/L (≈ 33.1 µM)
  MIC90: 32 mg/L (≈ 66.2 µM)
Benjaminiella poitrasii [1]
  inhibition: 71%
Benjaminiella poitrasii [2]
  inhibition at 4 µg/mL: 75%
Benjaminiella poitrasii [3]
  inhibition at 4 µg/mL: 31.9%
Candida albicans
  IC50: 18 mg/L (≈ 37.2 µM)
  MIC90: 32 mg/L (≈ 66.2 µM)

## CC1(C)O[C@@H]2[C@H](O1)[C@@H](Cn1cc(COC(=O)C(=O)c3ccccc3)nn1)O[C@H]2n1ccc(=O)[nH]c1=O
Cryptococcus neoformans
  IC50: 16 mg/L (≈ 32.2 µM)
  MIC90: > 128 mg/L
Fusarium oxysporum
  IC50: 55 mg/L (≈ 111 µM)
  MIC90: 106 mg/L (≈ 213 µM)
Benjaminiella poitrasii [1]
  inhibition: 80%
Benjaminiella poitrasii [2]
  inhibition at 4 µg/mL: 72%
Benjaminiella poitrasii [3]
  inhibition at 4 µg/mL: 51.5%
Candida albicans
  IC50: > 128 mg/L
  MIC90: > 128 mg/L
